Reference: patent EP2497475A1, “Treatment of laminitis with platelet aggregation inhibitors” (priority 2011, dated 2012)
Like-named read-outs stand apart in the source and are kept apart here.

Tested on: laminitis
Type: in vivo, horse

SMILES: CC(=O)Oc1cc2c(s1)CCN(C(C(=O)C1CC1)c1ccccc1F)C2 (stereo not drawn) [Prasugrel]
- Therapy progress (Example 1: 8 year old Shetty-gelding, acute attack, initial 20 mg Prasugrel + 1000 mg acetylsalicylic acid per 60 kg, then 10 mg + 500 mg per 60 kg twice a day, change in feeding, day 2): distinct pulsation in all 4 legs; the horse is more interested in its surrounding
- Therapy progress (Example 1: Shetty-gelding, Prasugrel in combination with acetylsalicylic acid, day 3): pulsation in the front legs less, in the back legs the same; horse comes when it is called
- 1. Follow-up examination (Example 1: Shetty-gelding, Prasugrel in combination with acetylsalicylic acid, day 4): day 4: pulsation in all 4 legs; horse walks with medium grade turning pain.
- 2. Follow-up examination: signs of laminitis (Example 1: Shetty-gelding, Prasugrel in combination with acetylsalicylic acid, day 6): no signs of laminitis
- 2. Follow-up examination: hoof ulcers (Example 1: Shetty-gelding, Prasugrel in combination with acetylsalicylic acid, day 8): no hoof ulcers observable
- 2. Follow-up examination: recurrence of laminitis (Example 1: Shetty-gelding, after stop of treatment on day 10, change of feeding kept): no more laminitis occurred
- Therapy progress (Example 2: 8 year old Shetty-mare, per 60 kg 10 mg Prasugrel + 500 mg acetylsalicylic acid twice a day, change in feeding, from day 3 on): light amelioration
- Therapy progress: pulsation (Example 2: Shetty-mare, Prasugrel in combination with acetylsalicylic acid, from day 7 on): no pulsation anymore sensible
- Therapy progress: pulsation (Example 2: Shetty-mare, Prasugrel in combination with acetylsalicylic acid, until day 5): pulsation clearly sensible
- Follow-up examination (Example 2: Shetty-mare, 1 month later (treatment stopped on day 14)): no pulsation; attitude without pathological findings
- Therapy progress (Example 3: 12 year old Pony-gelding, 10 mg Prasugrel + 500 mg acetylsalicylic acid per 60 kg twice a day, change in feeding, from day 2 on): light amelioration
- Therapy progress: movement (Example 3: Pony-gelding, Prasugrel in combination with acetylsalicylic acid, day 6): pony walks still restrained
- Therapy progress: movement (Example 3: Pony-gelding, Prasugrel in combination with acetylsalicylic acid, day 10): unlimited movement
- Therapy progress: pulsation (Example 3: Pony-gelding, Prasugrel in combination with acetylsalicylic acid, from day 4 on): no pulsation anymore sensible
- Therapy progress (Example 4: 8 year old Shetty-gelding, acute attack, 10 mg Prasugrel + 500 mg acetylsalicylic acid per 60 kg twice a day, change in feeding, day 3): pony standing in bran, but still heavy pain on all 4 legs
- Therapy progress (Example 4: Shetty-gelding, Prasugrel in combination with acetylsalicylic acid, day 5): clear amelioration of its attitude; less pulsation
- Therapy progress: pulsation (Example 4: Shetty-gelding, Prasugrel in combination with acetylsalicylic acid, from day 10 on): no pulsation sensible anymore
- Follow-up examination: outcome of pregnancy (in vivo): normal birth of a healthy foal
